The source of these data is patent US11472846B2, “Compositions and methods for treating diseases by inhibiting exosome release” (priority 2016, dated 2022).

Common to all, as to type: cell-based, human
The subject of assay [1] is MDA-MB-231 breast cancer cells. As to the kind of experiment: Exosome release by acetylcholinesterase (AchE) assay, MDA-MB-231. The following applies: for average AChE concentration day 1 to 5: MDA-MB-231 cells, five-day treatment. The method, then:
(§1) 1-6. Exosome isolation and purification. Exosomes were isolated from breast cancer cells by differential centrifugation as previously described (Ali SA. et al., 2010). Untreated tumor cells were used as a control. Briefly, the above treated and untreated cell culture supernatants were centrifuged at 400×g for 10 minutes. The supernatants were transferred to a clear tube and centrifuged at 10,000×g for 30 minutes. The supernatants from the second spin were ultracentrifuged at 200,000×g for 2 hours to pellet exosomes. Finally, the exosome pellets were re-suspended with PBS and stored at 4° C. until used for analysis.
1-7. Exosome characterization by acetylcholinesterase (AchE) assay. Purified exosomes were quantitated by measurement of AchE as described (Ellman et al., 1961). Briefly, a 100 mM dithibionitrobenzoic (DTNB) solution was prepared for use as a stock color indicator, and a 28.9 mg/mL acetylthiocholine iodide in PBS solution was prepared as a stock substrate. The stock substrate stock can be stored at −20° C. up to one month, while the color indicator can be stored at 4° C. for two weeks. A working solution was prepared by mixing 10 mL of PBS with 200 μL of Substrate and 500 μl of DTNB. 50 μL of each exosome sample was transferred to 96 well microtitre plates, and a standard curve was prepared using AchE from 0.98 mU/mL to 2000 mU/mL. After 50 μL of standards were added into separate wells, 200 μL of the working solution was added to all wells. After 20 min incubation, AchE activity was measured at 450 nm using a SpectroMax M5 fluorimeter.
7-5. Exosome isolation and purification. Exosomes were isolated from breast cancer cells and leukemia cells using the ExoQuick-TC Exosome Precipitation Kit (System Biosciencences [SBI], Mountain View Calif.) or the miRCURY Exosome Isolation Kit (EXIQON, Woburn, Mass.) according to the manufacturer's instructions. Untreated tumor cells were used as a control. Briefly, treated and untreated cell culture supernatants (10 mL) were centrifuged at 3000×g for 15 minutes. The resulting supernatants were transferred to a clear tube, 2 mL of ExoQuick-TC buffer was added, mixed and incubated overnight at 4° C. Following the incubation, the sample contents were centrifuged at 1500×g for 30 minutes, the supernatants were aspirated off, the pellets were centrifuged at 1500×g for 5 minutes and any further traces of supernatant were removed (SBI). Alternatively, treated and untreated cell culture supernatants were centrifuged at 10,000×g for 5 minutes to remove cell debris, supernatants (10 ml) were transferred into new tubes, and 4 mL of precipitation buffer (EXIQON) was added, and the contents were mixed and incubated at 4° C. overnight. Following the incubation, the sample contents were centrifuged at 10,000×g for 30 minutes (EXIQON). Exosome-containing pellets were re-suspended in PBS and stored at 4° C. or −80° C.
7-6. Exosome characterization by acetylcholinesterase (AchE) assay. Purified exosomes were quantitated by measurement of AchE as previously described (Huang et al., Oncotarget, 2017. 8(7): pp. 11302-11315). Briefly, 100 mM dithibionitrobenzoic (DTNB) was prepared as a stock color indicator, and prepared a stock substrate containing 28.9 mg/mL of acetylthiocholine iodide in PBS. Substrate stock can be stored at −20° C. up to one month; the stock color indicator can be stored at 4° C. for two weeks. A working solution was prepared by mixing 10 mL of PBS with 200 μL of substrate and 500 μl of DTNB. 50 μL of each exosome sample was transferred to a 96 well microtitre plate, and a standard curve for AchE concentrations was prepared using AchE from 0.98 mU/mL to 2000 mU/mL. After 50 μL of standards were added into separate wells, 200 μL of the working solution was added to each well. After a 20 min incubation, AchE activity was measured at 450 nm using a SpectroMax M5 fluorometer (FIG. 11).

Assay [2] relates to MCF-7 breast cancer cells. As to the kind of experiment: InnoCyte cell migration assay, MCF-7. As to conditions: MCF-7 cells, 1120 nM SMR peptide or 3 μM Latrunculin A, 24 hours. The protocol:
7-12. Cell migration assay. Cell migration assays were performed using the InnoCyte Cell Migration Assay (EMD Millipore Corporation, Temecula, Calif.) according to the manufacturer's instructions. Briefly, cell migration was monitored in the presence and absence of SMRwt peptides or latrunculin A (positive control inhibitor), which were added to the lower chamber of a 96-well plate. MCF-7 and MDA-MB-231 breast cancer cells and non-tumorigenic MCF-10A breast cells were harvested by 0.25% Trypsin-EDTA (Life Technologies) release and resuspended at 250,000500,000 cells/ml in serum-free RPMI 1640 media. A total of 25,000-50,000 cells was added to the upper chamber and allowed to migrate through an 8-μm pore-size membrane for 24 hours at 37° C. in a 5% CO2 atmosphere. Cells that migrated through the membrane were detached and labeled with Calcein-AM fluorescent dye. Fluorescence was measured using a Fluorescence Plate Reader (Molecular Devices, Sunnyvale, Calif.) with an excitation wavelength of 485 nm and an emission wavelength of 515 nm. The experiment was repeated in triplicate, and each conditioned experiment was performed in quadruplicate.

For assay [3], the system named is MDA-MB-231 breast cancer cells. The assay is described as follows: Exosome nanoparticle tracking analysis (NanoSight NTA), MDA-MB-231. As to conditions: MDA-MB-231 cells treated 48 hr; control 4.7×10^9 particles/ml. The protocol: as §1
1-8. Exosome nanoparticle tracking analysis (NTA). Analysis of absolute size distribution of exosomes was performed using NanoSight LM10 with NTA2.3 (NanoSight Ltd., Minton Park, UK). Particles were automatically tracked and sized based on Brownian motion and the diffusion coefficient. After isolation, the untreated and treated breast cancer exosomes were re-suspended in 0.5 mL of PBS. Control medium and filtered PBS were used as controls in this technique. The NTA measurement conditions were: temperature=21.0+/−0.5° C.; viscosity=0.99+/−0.01 cP; frames per second=25; measurement time=30 s. The detection threshold was similar in all samples. Two recordings were performed for each sample.
7-11. Exosome nanoparticle tracking analysis (NTA). […]

For VGFPVAAVGFPVGRKKRRQRRRPPQ [SMRwt-CPP], the “average AChE concentration day 1 to 5” value in assay [1] is 29 mU/mL. The “reduced migration by” value in assay [2] is given as 71.87%.

Take “NXNVGFPVAAVGFPVHPLSKHPYWSQP (SEQ ID NO: 37) [PEG-SMRwt-Clu]”: the “AchE activity in exosomes” value in assay [1] (MDA-MB-231 cells treated 48 hr, control exosomes 118.48 mU/mL) was found to be 66.77 mU/mL. Moreover, in assay [1], the “average AChE concentration day 1 to 5” value was 42 mU/mL. Also, in assay [3], the “number of exosome particles (NTA)” value is recorded as 6.8×10^8 particles/ml. Further, the “reduced migration by” value in assay [2] came to 75.74%.
